Test results: patent US20020052295A1, “Diacyl derivatives of propylene diamine having herbicidal activity” (priority 1999, published 2002)

What was measured:
ABUTH = test: Pre-emergence herbicidal activity on ABUTH (velvetleaf); assay type: in vivo, Abutilon theophrasti
Summary of the method: (§1)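 Steps: sterilized fertilized topsoil potted; seeds sown, covered; compound (50:50 acetone/water dilution) applied to soil surface; 0.64 cm overhead irrigation; greenhouse 30/21 °C day/night; % inhibition vs untreated scored at ~14 d; GR80 calculated.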

SOLNI = test: Pre-emergence herbicidal activity on SOLNI (black nightshade); assay type: in vivo, Solanum nigrum
Summary of the method: as §1

AMARE = test: Pre-emergence herbicidal activity on AMARE (redroot pigweed); assay type: in vivo, Amaranthus retroflexus
Summary of the method: as §1

DATST = test: Pre-emergence herbicidal activity on DATST (jimsonweed); assay type: in vivo, Datura stramonium
Summary of the method: as §1

CHEAL = test: Pre-emergence herbicidal activity on CHEAL (common lambsquarters); assay type: in vivo, Chenopodium album
Summary of the method: as §1

CONAR = test: Pre-emergence herbicidal activity on CONAR (field bindweed); assay type: in vivo, Convolvulus arvensis
Summary of the method: as §1

POROL = test: Pre-emergence herbicidal activity on POROL (common purslane); assay type: in vivo, Portulaca oleracea
Summary of the method: as §1

CIRAR = test: Pre-emergence herbicidal activity on CIRAR (canada thistle, seedling); assay type: in vivo, Cirsium arvense
Summary of the method: as §1

PANMI = test: Pre-emergence herbicidal activity on PANMI (wild proso millet); assay type: in vivo, Panicum miliaceum
Summary of the method: as §1

SORHA = test: Pre-emergence herbicidal activity on SORHA (johnsongrass, seedling); assay type: in vivo, Sorghum halepense
Summary of the method: as §1

SETFA = test: Pre-emergence herbicidal activity on SETFA (giant foxtail); assay type: in vivo, Setaria faberi
Summary of the method: as §1

PANDI = test: Pre-emergence herbicidal activity on PANDI (fall panicum); assay type: in vivo, Panicum dichotomiflorum
Summary of the method: as §1

BRAPP = test: Pre-emergence herbicidal activity on BRAPP (broadleaf signalgrass); assay type: in vivo, Brachiaria platyphylla
Summary of the method: as §1

DIGSA = test: Pre-emergence herbicidal activity on DIGSA (large crabgrass); assay type: in vivo, Digitaria sanguinalis
Summary of the method: as §1

[1] = tested on: monocotyledonous and dicotyledonous annual plant species; test: Greenhouse pre-emergence test, all species of the test taken together; assay type: in vivo; settings: acetochlor alone at 100 g/ha
From the text: All such uses, and the biological activity enabling such uses, are embraced by the term “herbicidal” herein. […] Where herbicidal activity was evident but 80% inhibition was not achieved at the highest rate tested (typically 1000 g/ha), an asterisk (*) is shown in the following tables. Herbicidal activity evident in the form of symptoms of phytotoxicity, in the absence of at least 80% inhibition at any rate, is indicated in the tables by “phyto”. A blank cell in the following tables indicates no herbicidal or phytotoxic response at any rate tested.
(§2) The pre-emergence tests were conducted by the following procedure. Topsoil was sieved to pass through a 1.27 cm screen. Fertilizer was added to the topsoil and the mixture was then sterilized by heating. The topsoil mixture was placed in a pot and compacted to a depth of 1.0 to 1.25 cm from the top of the pot. Seeds of each of several monocotyledonous and dicotyledonous annual plant species were placed on top of the soil. Additional soil was subsequently placed over the seeds to level-fill the pot. A known amount of each test compound dissolved or suspended in an appropriate organic solvent was diluted with a 50:50 mix of acetone and water and applied to the surface of the soil. After treatment the plants were placed in a greenhouse with a 30/21° C. day/night temperature regime where they received 0.64 cm of overhead irrigation. All subsequent watering consisted of a light overhead mist and/or subirrigation as needed for germination and growth.
Pre-emergence herbicidal activity of the compound of Example 5, a racemic mixture of R- and S-enantiomers of N,N′-(1,2-propanediylbis)-3-(trifluoromethyl) benzamide, was compared with that of the individual R- and S-enantiomers, the compounds of Examples 5a and 5b respectively. The procedure was exactly as described above. Rates tested were 1000, 650, 300, 200, 100, 65, 30 and 10 g/ha.
In a greenhouse pre-emergence test conducted according to the procedure described hereinabove, R—N,N′-(1,2-propanediylbis)-3-(trifluoromethyl)benzamide (the compound of Example 5a) was applied at 200 g/ha and acetochlor was applied at 100 g/ha, both individually and in combination.
In the same greenhouse pre-emergence test, R-2-fluoro-3-trifluoromethyl-N-[1-methyl-2-(3-trifluoromethyl)phenylcarbonylamino]ethylbenzamide (the compound of Example 13) was applied at 100 g/ha and acetochlor was applied at 100 g/ha, both individually and in combination.

ECHCG = test: Pre-emergence herbicidal activity on ECHCG (barnyardgrass); assay type: in vivo, Echinochloa crus-galli; settings: lowest tested rate giving 80% or greater inhibition, approx. 14 days after planting and treating, greenhouse
Summary of the method: as §1

SORVU = test: Pre-emergence herbicidal activity on SORVU (shattercane); assay type: in vivo, Sorghum vulgare; settings: lowest tested rate giving 80% or greater inhibition, approx. 14 days after planting and treating, greenhouse
From the text: All such uses, and the biological activity enabling such uses, are embraced by the term “herbicidal” herein. Tables 15 and 16 summarize results of tests conducted as described below to determine the pre-emergence herbicidal activity, in the form of a GR80 value, of illustrative compounds of this invention. […] Where herbicidal activity was evident but 80% inhibition was not achieved at the highest rate tested (typically 1000 g/ha), an asterisk (*) is shown in the following tables. Herbicidal activity evident in the form of symptoms of phytotoxicity, in the absence of at least 80% inhibition at any rate, is indicated in the tables by “phyto”. A blank cell in the following tables indicates no herbicidal or phytotoxic response at any rate tested.
as §2
Approximately 14 days after planting and treating, the plants were observed and herbicidal efficacy recorded as percent inhibition by comparison with untreated plants.
The plant species usually regarded as weeds which were utilized in the tests are identified in the tables below according to the following legend, in which “d” indicates a dicotyledonous species and “m” a monocotyledonous species. All monocotyledonous species included in the tests herein are grasses.

[2] = applied alone at 100 g/ha, greenhouse
[3] = pre-emergence application, acetochlor 100 g/ha alone
[4] = lowest tested rate giving 80% or greater inhibition, approx. 14 days after planting and treating, greenhouse

CCOCN(C(=O)CCl)c1c(C)cccc1CC [Acetochlor, acetochlor, reference compound]
Percent control by pre-emergence application, ABUTH (ABUTH; [2]): 0% | Percent control ABUTH (ABUTH; [3]): 0% | Percent control by pre-emergence application, SOLNI (SOLNI; [2]): 75% | Percent control SOLNI (SOLNI; [3]): 75% | Percent control by pre-emergence application, AMARE (AMARE; [2]): 100% | Percent control AMARE (AMARE; [3]): 100% | Percent control by pre-emergence application, DATST (DATST; [2]): 33% | Percent control DATST (DATST; [3]): 33% | Percent control by pre-emergence application, CHEAL (CHEAL; [2]): 100% | Percent control CHEAL (CHEAL; [3]): 100% | Percent control by pre-emergence application, CONAR (CONAR; [2]): 23% | Percent control CONAR (CONAR; [3]): 23% | Percent control by pre-emergence application, POROL (POROL; [2]): 100% | Percent control POROL (POROL; [3]): 100% | Percent control by pre-emergence application, CIRAR (CIRAR; [2]): 100% | Percent control CIRAR (CIRAR; [3]): 100% | Percent control by pre-emergence application, PANMI (PANMI; [2]): 83% | Percent control PANMI (PANMI; [3]): 83% | Percent control by pre-emergence application, SORHA (SORHA; [2]): 83% | Percent control SORHA (SORHA; [3]): 83% | Percent control by pre-emergence application, SETFA (SETFA; [2]): 100% | Percent control SETFA (SETFA; [3]): 100% | Percent control by pre-emergence application, PANDI (PANDI; [2]): 100% | Percent control PANDI (PANDI; [3]): 100% | Percent control by pre-emergence application, BRAPP (BRAPP; [2]): 76% | Percent control BRAPP (BRAPP; [3]): 76% | Percent control by pre-emergence application, DIGSA (DIGSA; [2]): 100% | Percent control DIGSA (DIGSA; [3]): 100% | number of the 14 species showing >85% control [1]: 7

CC(CNC(=O)c1cccc(C(F)(F)F)c1)NC(=O)c1cccc(Cl)c1F (stereo not drawn) [Example 49]
Pre-emergence activity (GR80) on ABUTH (ABUTH; [4]): 64 g/ha | Pre-emergence activity (GR80) on SOLNI (SOLNI; [4]): 125 g/ha | Pre-emergence activity (GR80) on AMARE (AMARE; [4]): 64 g/ha | Pre-emergence activity (GR80) on DATST (DATST; [4]): 64 g/ha | Pre-emergence activity (GR80) on CHEAL (CHEAL; [4]): 64 g/ha | Pre-emergence activity (GR80) on CONAR (CONAR; [4]): 750 g/ha | Pre-emergence activity (GR80) on PORAL (POROL; [4]): 64 g/ha | Pre-emergence activity (GR80) on CIRAR (CIRAR; [4]): 64 g/ha | Pre-emergence activity (GR80) on ECHCG (ECHCG): 500 g/ha | Pre-emergence activity (GR80) on PANMI (PANMI; [4]): 125 g/ha | Pre-emergence activity (GR80) on SORHA (SORHA; [4]): 250 g/ha | Pre-emergence activity (GR80) on SETFA (SETFA; [4]): 125 g/ha | Pre-emergence activity (GR80) on PANDI (PANDI; [4]): 64 g/ha | Pre-emergence activity (GR80) on SORVU (SORVU): * (Where herbicidal activity was evident but 80% inhibition was not achieved at the highest rate tested (typically 1000 g/ha), an asterisk (*) is shown) | Pre-emergence activity (GR80) on BRAPP (BRAPP; [4]): 500 g/ha | Pre-emergence activity (GR80) on DIGSA (DIGSA; [4]): 64 g/ha
